Source: article PMC6017932, “Synthesis of Selenium-Quinone Hybrid Compounds with Potential Antitumor Activity via Rh-Catalyzed C-H Bond Activation and Click Reactions” (Molecules : A Journal of Synthetic Chemistry and Natural …, 2017)
Read-outs that look alike come from different tables or passages of the source.

Legend:
[1] = tested on: HL-60 (human promyelocytic leukemia cells); test: MTT cytotoxicity, HL-60 cells; format: cell-based; details: three independent experiments, read-out: Cytotoxic activity IC50 (95% CI) HL-60
Method: (§1) Compounds were evaluated for antitumor activity in cell culture in vitro using several human cancer cell lines obtained from the National Cancer Institute, NCI (Bethesda, MD, USA). […] The L929 cells were cultivated under standard conditions in DMEM with Earle’s salts. […] At the end of the incubation time (72 h), the plates were centrifuged and the medium was replaced by fresh medium (200 μL) containing 0.5 mg/mL MTT. After 3 h, the MTT formazan product was dissolved in DMSO (150 μL) and the absorbance was measured using a multiplate reader (Spectra Count, Packard, ON, Canada). The impact of compounds on cell proliferation was quantified as the percentage of control absorbance of the reduced dye at 550 nm. All cell culture based studies were performed in triplicate. All cells were mycoplasma-free.

[2] = tested on: HCT-116 (human colon carcinoma cells); test: MTT cytotoxicity, HCT-116 cells; format: cell-based; details: three independent experiments, read-out: Cytotoxic activity IC50 (95% CI) HCT-116
Method: as §1

[3] = tested on: SF295 (human glioblastoma cells); test: MTT cytotoxicity, SF295 cells; format: cell-based; details: three independent experiments, read-out: Cytotoxic activity IC50 (95% CI) SF295
Method: as §1

[4] = tested on: NCIH-460 (human lung cells); test: MTT cytotoxicity, NCIH-460 cells; format: cell-based; details: three independent experiments, read-out: Cytotoxic activity IC50 (95% CI) NCIH-460
Method: as §1

[5] = tested on: PC3 (human prostate cancer cells); test: MTT cytotoxicity, PC3 cells; format: cell-based; details: Homo sapiens, PC-3, 72 h exposure, three independent experiments, read-out: Cytotoxic activity IC50 (95% CI) PC3
Method: as §1

[6] = MTT cytotoxicity, L929 normal cells; format: cell-based, mouse; details: mouse, normal cell line, 72 h exposure, three independent experiments, read-out: Cytotoxic activity IC50 (95% CI) L929
Method: as §1

[7] = tested on: L929 (murine fibroblasts normal cells); test: MTT cytotoxicity, L929 normal cells; format: cell-based, mouse; details: normal cell line, 72 h exposure, three independent experiments, read-out: Cytotoxic activity IC50 (95% CI) L929
Method: as §1

[8] = Homo sapiens, HL-60, 72 h exposure
[9] = Homo sapiens, HCT-116, 72 h exposure
[10] = Homo sapiens, SF-295, 72 h exposure
[11] = Homo sapiens, NCI-H460, 72 h exposure

Compound	melting point	IC50 [1, 8]	IC50 [2, 9]	IC50 [3, 10]	IC50 [4, 11]	IC50 [5]	IC50 at 72 h [6]	IC50 ([1]; 72 h exposure)	IC50 ([2]; 72 h exposure)	IC50 ([3]; 72 h exposure)	IC50 ([4]; 72 h exposure)	IC50 [7]
COc1ccc([Se]C2=CC(=O)c3ccccc3C2=O)cc1 [Compound 3, 2-((4-Methoxyphenyl)selanyl)naphthalene-1,4-dione]	140.7 to 148.3 °C	4.68 µM	> 10 µM	> 10 µM	> 10 µM	> 10 µM	> 10 µM	–	–	–	–	–
COC1=C(CN=[N+]=[N-])C(=O)c2ccccc2C1=O [Compound 8, 2-(Azidomethyl)-3-methoxynaphthalene-1,4-dione]	–	> 10 µM	> 10 µM	> 10 µM	> 10 µM	> 10 µM	> 10 µM	–	–	–	–	–
COC1=C(Cn2cc(-c3ccccc3)nn2)C(=O)c2ccccc2C1=O [Compound 9, 2-Methoxy-3-((4-phenyl-1H-1,2,3-triazol-1-yl)methyl)naphthalene-1,4-dione]	103.8 to 104.7 °C	5.39 µM	> 10 µM	> 10 µM	> 10 µM	> 10 µM	> 10 µM	–	–	–	–	–
O=C1C=C([Se]c2ccc(F)cc2)C(=O)c2ccccc21 [Compound 5, 2-((4-Fluorophenyl)selanyl)naphthalene-1,4-dione]	139.2 to 139.9 °C	2.16 µM	> 10 µM	> 10 µM	> 10 µM	> 10 µM	> 10 µM	–	–	–	–	–
COC1=C(Cn2cc(-c3ccc([N+](=O)[O-])cc3)nn2)C(=O)c2ccccc2C1=O [Compound 10, 2-Methoxy-3-((4-(4-nitrophenyl)-1H-1,2,3-triazol-1-yl)methyl)naphthalene-1,4-dione]	205.8 to 206.7 °C	> 10 µM	> 10 µM	> 10 µM	> 10 µM	> 10 µM	> 10 µM	–	–	–	–	–
4-(4-((Benzylselanyl)methyl)-1H-1,2,3-triazol-1-yl)-3-bromo-2,2-dimethyl-3,4-dihydro-2H-benzo[h]-chromene-5,6-dione [Compound 20]	–	–	–	–	–	–	–	1 µM	2.03 µM	3.12 µM	3.26 µM	0.61 µM
COC1=C(Cn2cc(-c3ccc(OC)cc3)nn2)C(=O)c2ccccc2C1=O [Compound 11, 2-Methoxy-3-((4-(4-methoxyphenyl)-1H-1,2,3-triazol-1-yl)methyl)naphthalene-1,4-dione]	149.3 to 150.7 °C	2.32 µM	> 10 µM	> 10 µM	> 10 µM	> 10 µM	> 10 µM	–	–	–	–	–
O=C1C=C([Se]c2ccccc2)C(=O)c2ccccc21 [Compound 2, 2-(Phenylselanyl)naphthalene-1,4-dione]	–	1.96 µM	> 10 µM	> 10 µM	> 10 µM	> 10 µM	> 10 µM	–	–	–	–	–
COC1=C(Cn2cc(C[Se]c3ccc(OC)cc3)nn2)C(=O)c2ccccc2C1=O [Compound 15, 2-Methoxy-3-((4-(((4-methoxyphenyl)selanyl)methyl)-1H-1,2,3-triazol-1-yl)methyl)naphthalene-1,4-dione]	–	> 10 µM	> 10 µM	> 10 µM	> 10 µM	> 10 µM	> 10 µM	–	–	–	–	–
O=C1C=C([Se]c2ccc(Cl)cc2)C(=O)c2ccccc21 [Compound 4, 2-((4-Chlorophenyl)selanyl)naphthalene-1,4-dione]	154.8 to 155.7 °C	2.25 µM	> 10 µM	> 10 µM	> 10 µM	> 10 µM	> 10 µM	–	–	–	–	–
COc1cccc2c1C(=O)c1c(O)c3c(c(O)c1C2=O)C[C@@](O)(C(=O)CO)C[C@@H]3O[C@H]1C[C@H](N)[C@H](O)[C@H](C)O1 [DOXO, Doxorubicin, reference compound]	–	0.02 µM	0.21 µM	–	–	0.76 µM	1.72 µM	–	–	–	–	–

The next lines start with results.

melting point	Compound	IC50 [1, 8]	IC50 [2, 9]	IC50 [3, 10]	IC50 [4, 11]	IC50 [5]	IC50 at 72 h [6]	IC50 ([1]; 72 h exposure)	IC50 ([2]; 72 h exposure)	IC50 ([3]; 72 h exposure)	IC50 ([4]; 72 h exposure)	IC50 [7]
187.1 to 190 °C	CC1(C)OC2=C(C(=O)C(=O)c3ccccc32)C(n2cc(C[Se]c3ccc(F)cc3)nn2)C1Br (stereo not drawn) [Compound 18, 3-Bromo-4-(4-(((4-fluorophenyl)selanyl)methyl)-1H-1,2,3-triazol-1-yl)-2,2-dimethyl-3,4-dihydro-2H-benzo[h]chromene-5,6-dione]	0.59 µM	0.37 µM	1.48 µM	1.32 µM	1.06 µM	0.36 µM	–	–	–	–	–
123.1 to 124.4 °C	CCCC[Se]Cc1cn(C2C3=C(OC(C)(C)C2Br)c2ccccc2C(=O)C3=O)nn1 (stereo not drawn) [Compound 23, 3-Bromo-4-(4-((butylselanyl)methyl)-1H-1,2,3-triazol-1-yl)-2,2-dimethyl-3,4-dihydro-2H-benzo[h]chromene-5,6-dione]	0.71 µM	0.97 µM	3.43 µM	2.64 µM	1.64 µM	2.12 µM	–	–	–	–	–
104.3 to 108.6 °C	CC1(C)OC2=C(C(=O)C(=O)c3ccccc32)C(n2cc(C[Se]c3cccs3)nn2)C1Br (stereo not drawn) [Compound 22, 3-Bromo-2,2-dimethyl-4-(4-((thiophen-2-ylselanyl)methyl)-1H-1,2,3-triazol-1-yl)-3,4-dihydro-2H-benzo[h]chromene-5,6-dione]	0.53 µM	> 8 µM	2.13 µM	2.75 µM	2.47 µM	3.16 µM	–	–	–	–	–
69 to 71 °C	COC1=C(Cn2cc(C[Se]c3ccccc3)nn2)C(=O)c2ccccc2C1=O [Compound 14, 2-Methoxy-3-((4-((phenylselanyl)methyl)-1H-1,2,3-triazol-1-yl)methyl)naphthalene-1,4-dione]	> 10 µM	> 10 µM	> 10 µM	> 10 µM	> 10 µM	> 10 µM	–	–	–	–	–
174.1 to 175 °C	COC1=C(Cn2cc(-c3ccc(Br)cc3)nn2)C(=O)c2ccccc2C1=O [Compound 13, 2-((4-(4-Bromophenyl)-1H-1,2,3-triazol-1-yl)methyl)-3-methoxynaphthalene-1,4-dione]	> 10 µM	> 10 µM	> 10 µM	> 10 µM	> 10 µM	> 10 µM	–	–	–	–	–
113.5 to 114.6 °C	COc1ccc([Se]Cc2cn(C3C4=C(OC(C)(C)C3Br)c3ccccc3C(=O)C4=O)nn2)cc1 (stereo not drawn) [Compound 19, 3-Bromo-4-(4-(((4-methoxyphenyl)selanyl)methyl)-1H-1,2,3-triazol-1-yl)-2,2-dimethyl-3,4-dihydro-2H-benzo[h]chromene-5,6-dione]	1.28 µM	> 8 µM	1.75 µM	2.33 µM	1.55 µM	0.68 µM	–	–	–	–	–
119.5 to 121.4 °C	CC1(C)OC2=C(C(=O)C(=O)c3ccccc32)C(n2cc(CSc3ccccc3)nn2)C1Br (stereo not drawn) [Compound 24, 3-Bromo-2,2-dimethyl-4-(4-((phenylthio)methyl)-1H-1,2,3-triazol-1-yl)-3,4-dihydro-2H-benzo[h]chromene-5,6-dione]	1.94 µM	4.38 µM	2.34 µM	4.91 µM	2.1 µM	0.84 µM	–	–	–	–	–
123.1 to 124.5 °C	COC1=C(Cn2cc(-c3ccc(C)cc3)nn2)C(=O)c2ccccc2C1=O [Compound 12, 2-Methoxy-3-((4-(p-tolyl)-1H-1,2,3-triazol-1-yl)methyl)naphthalene-1,4-dione]	> 10 µM	> 10 µM	> 10 µM	> 10 µM	> 10 µM	> 10 µM	–	–	–	–	–
185.3 to 187.1 °C	CC1(C)OC2=C(C(=O)C(=O)c3ccccc32)C(n2cc(C[Se]c3ccc(Cl)cc3)nn2)C1Br (stereo not drawn) [Compound 17, 3-Bromo-4-(4-(((4-chlorophenyl)selanyl)methyl)-1H-1,2,3-triazol-1-yl)-2,2-dimethyl-3,4-dihydro-2H-benzo[h]chromene-5,6-dione]	0.81 µM	> 8 µM	2.6 µM	2.06 µM	2.03 µM	0.52 µM	–	–	–	–	–
